Assay [1] has as its system Akt phosphorylation induced by IGF-1R. Put plainly: Western blot analysis of Akt phosphorylation induced by IGF-1 in HT-29 cells. To be noted: for Levels of phosphorylated AKT in treated cells (pAKT/actin): HT-29 cells, IGF-1; for p-AKT relative to levels with 0.1 nM compound: Table B2 lower part; for Normalized phosphorylated AKT (relative to actin) levels relative to 0.1 nM compound treatment: Table B2 upper part. Format: cell-based, Human. Here is the method:
Inhibition of Akt phosphorylation induced by IGF-1R was studied by western blot analysis. Human colon carcinoma HT-29 cells were seeded at a density of 8×10^4 cells/well in a 24-well plate and grown in DME/F12 media containing 10% FBS for 24 h. The cells were then depleted of serum by incubation in DME/F12 media lacking FBS for 24 h. […] […] Lysed cells were centrifuged at 13,000 rpm for 15 min and the protein concentration soluble fraction (supernatant) of each sample was determined using a BCA protein assay (Pierce).

In a further assay the target is T1, IGF-1R (Homo sapiens, UniProt P08069).
T1 construct: purchased Millipore 14-802
Put plainly: In vitro IGF-1R enzymatic assay (ADP-Glo kinase assay). Format: biochemical. The note with it: activated IGF-1R; for % Inh @ 30 nM Avg / inhibition at 0.03 µM: average, 30 nM; for inhibition at 0.03 µM: read-out: % Inh @ 30 nM Avg. How it is done:
(§1) IC50 values of the compounds of the invention against IGF-1R and IR were measured in vitro using an ADP-Glo kinase assay Kit (Promega). […] Kinase reactions in both assays were conducted at 30° C. for 20 min with increasing concentrations of compounds of the invention.
Additional compounds of the invention were screened against activated IGF-1R.

The target in another assay is T2, IR (Homo sapiens, UniProt P06213).
T2 construct: purchased Millipore 14-803
Put plainly: In vitro IR enzymatic assay (ADP-Glo kinase assay). To be noted: activated IR, 30 nM; for % Inh @ 30 nM (N1) / % Inh @ 30 nM (N2): 0.03 µM. The format is biochemical. How it is done: as §1
Additional compounds of the invention were screened against activated IR.

[2] abbreviates: average, read-out: % Inh @ 30 nM Avg.

Read-outs that look alike come from different tables or passages of the source.

T1 sequence (P08069 31-1367): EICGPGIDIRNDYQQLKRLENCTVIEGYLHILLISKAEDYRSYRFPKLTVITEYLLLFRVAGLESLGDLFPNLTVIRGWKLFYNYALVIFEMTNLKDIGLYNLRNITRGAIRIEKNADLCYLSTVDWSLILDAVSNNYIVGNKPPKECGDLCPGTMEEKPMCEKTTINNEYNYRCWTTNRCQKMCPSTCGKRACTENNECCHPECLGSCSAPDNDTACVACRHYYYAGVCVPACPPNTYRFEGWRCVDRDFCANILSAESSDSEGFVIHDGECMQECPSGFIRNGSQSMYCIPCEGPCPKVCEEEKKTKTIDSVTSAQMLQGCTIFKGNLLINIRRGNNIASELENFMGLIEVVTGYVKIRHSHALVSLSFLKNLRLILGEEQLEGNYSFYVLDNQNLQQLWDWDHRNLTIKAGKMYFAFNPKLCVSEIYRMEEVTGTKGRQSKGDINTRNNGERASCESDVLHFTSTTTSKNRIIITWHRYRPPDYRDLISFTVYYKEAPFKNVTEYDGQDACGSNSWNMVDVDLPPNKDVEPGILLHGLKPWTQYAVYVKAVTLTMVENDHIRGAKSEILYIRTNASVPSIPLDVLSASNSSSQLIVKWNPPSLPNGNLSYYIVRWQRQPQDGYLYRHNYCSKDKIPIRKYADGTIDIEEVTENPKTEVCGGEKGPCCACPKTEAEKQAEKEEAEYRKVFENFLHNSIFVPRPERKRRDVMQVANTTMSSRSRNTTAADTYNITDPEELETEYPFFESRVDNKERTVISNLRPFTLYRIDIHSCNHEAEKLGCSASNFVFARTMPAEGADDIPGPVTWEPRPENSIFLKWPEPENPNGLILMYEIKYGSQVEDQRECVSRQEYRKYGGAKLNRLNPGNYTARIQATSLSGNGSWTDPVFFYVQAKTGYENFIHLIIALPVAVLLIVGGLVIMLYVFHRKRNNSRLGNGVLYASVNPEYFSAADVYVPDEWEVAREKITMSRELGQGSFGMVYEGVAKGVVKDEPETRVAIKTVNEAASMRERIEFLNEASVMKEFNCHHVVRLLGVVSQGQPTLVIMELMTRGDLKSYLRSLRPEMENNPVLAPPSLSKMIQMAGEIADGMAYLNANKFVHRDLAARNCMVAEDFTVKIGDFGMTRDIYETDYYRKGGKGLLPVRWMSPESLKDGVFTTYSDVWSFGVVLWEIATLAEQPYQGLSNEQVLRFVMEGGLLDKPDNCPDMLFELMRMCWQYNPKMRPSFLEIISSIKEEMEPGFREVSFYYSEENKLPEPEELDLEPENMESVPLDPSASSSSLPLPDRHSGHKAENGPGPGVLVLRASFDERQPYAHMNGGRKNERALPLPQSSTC
T2 sequence (P06213 28-1382): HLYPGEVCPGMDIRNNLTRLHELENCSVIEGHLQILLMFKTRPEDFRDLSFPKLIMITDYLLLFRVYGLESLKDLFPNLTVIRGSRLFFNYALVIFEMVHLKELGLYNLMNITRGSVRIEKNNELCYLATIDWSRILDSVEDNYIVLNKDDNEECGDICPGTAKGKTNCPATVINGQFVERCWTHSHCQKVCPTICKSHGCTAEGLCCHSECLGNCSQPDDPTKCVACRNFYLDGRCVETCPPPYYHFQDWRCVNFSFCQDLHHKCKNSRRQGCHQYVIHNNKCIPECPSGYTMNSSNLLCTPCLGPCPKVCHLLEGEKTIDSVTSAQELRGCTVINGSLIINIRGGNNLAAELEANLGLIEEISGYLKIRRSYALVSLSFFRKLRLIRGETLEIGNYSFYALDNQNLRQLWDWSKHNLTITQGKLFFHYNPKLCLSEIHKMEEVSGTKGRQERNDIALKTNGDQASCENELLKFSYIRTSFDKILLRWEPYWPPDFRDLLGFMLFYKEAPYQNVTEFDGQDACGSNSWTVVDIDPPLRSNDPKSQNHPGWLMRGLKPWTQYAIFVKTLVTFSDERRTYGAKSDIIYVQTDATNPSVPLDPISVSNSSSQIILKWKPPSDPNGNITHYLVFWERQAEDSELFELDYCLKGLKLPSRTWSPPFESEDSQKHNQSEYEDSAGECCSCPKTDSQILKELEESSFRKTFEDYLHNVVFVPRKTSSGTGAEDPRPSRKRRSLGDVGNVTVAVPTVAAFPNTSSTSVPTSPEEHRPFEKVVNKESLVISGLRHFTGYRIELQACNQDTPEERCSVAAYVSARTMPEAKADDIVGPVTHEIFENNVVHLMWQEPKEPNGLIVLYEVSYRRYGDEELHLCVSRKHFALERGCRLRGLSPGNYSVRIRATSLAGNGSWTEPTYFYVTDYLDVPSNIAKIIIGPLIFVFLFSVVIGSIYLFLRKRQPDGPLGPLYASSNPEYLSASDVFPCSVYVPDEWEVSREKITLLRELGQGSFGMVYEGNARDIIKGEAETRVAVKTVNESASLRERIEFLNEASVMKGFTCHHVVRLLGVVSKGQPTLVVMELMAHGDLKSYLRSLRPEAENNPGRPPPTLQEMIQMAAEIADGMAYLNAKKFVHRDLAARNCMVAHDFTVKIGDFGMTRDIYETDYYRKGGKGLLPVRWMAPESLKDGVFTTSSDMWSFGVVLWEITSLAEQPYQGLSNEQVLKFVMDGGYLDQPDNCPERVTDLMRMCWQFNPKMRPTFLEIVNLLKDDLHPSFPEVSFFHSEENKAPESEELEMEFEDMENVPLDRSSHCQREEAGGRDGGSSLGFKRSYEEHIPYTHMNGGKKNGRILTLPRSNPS

For `O=C(Nc1ccc(F)nc1)C1CC(O)CN1c1nc2c(c(Nc3cc(C4CC4)[nH]n3)n1)CCC2` (racemic) [Compound 10b, 1-(4-(5-cyclopropyl-1H-pyrazol-3-ylamino)-6,7-dihydro-5H-cyclopenta[d]pyrimidin-2-yl)-N-(6-fluoropyridin-3-yl)-4-hydroxypyrrolidine-2-carboxamide], the “Levels of phosphorylated AKT in treated cells (pAKT/actin)” value (“Levels … (pAKT/actin)” below) in assay [1] (0.1 nM compound) turned out to be 2.21; in assay [1] (1 nM compound), 2.75; in assay [1] (10 nM compound), 1.71; in assay [1] (100 nM compound), 1.66. Moreover, the “p-AKT relative to levels with 0.1 nM compound” value (“p-AKT relative to levels” for short) in assay [1] (0.1 nM) worked out at 1.0; in assay [1] (1 nM), 1.2; in assay [1] (10 nM) it was 0.8; in assay [1] (100 nM), 0.8. Also, the “Normalized phosphorylated AKT (relative to actin) levels relative to 0.1 nM compound treatment” value in assay [1] (0.1 nM) was determined as 1.0; in assay [1] (1 nM), 1.2; in assay [1] (10 nM) it was 0.8; in assay [1] (100 nM), 0.8. In addition, the “% Inh @ 30 nM Avg” value at IGF-1R is recorded as −11%.
With `O=C(Nc1ccc(F)nc1)C1CCCN1c1nc2c(c(Nc3cc(C4CCCC4)[nH]n3)n1)CCCC2` (single isomer, unassigned) [Compound 15a, 1-(4-(5-cyclopentyl-1H-pyrazol-3-ylamino)-5,6,7,8-tetrahydroquinazolin-2-yl)-N-(6-fluoropyridin-3-yl)pyrrolidine-2-carboxamide], the “Levels … (pAKT/actin)” value in assay [1] (0.1 nM compound) stood at 0.70; in assay [1] (1 nM compound), 0.89; in assay [1] (10 nM compound), 0.92; in assay [1] (100 nM compound), 0.59. In addition, the “p-AKT relative to levels” value in assay [1] (0.1 nM) is reported as 1.0; in assay [1] (1 nM), 1.3; in assay [1] (10 nM) it was 1.3; in assay [1] (100 nM) it was 0.8. Further, the “Normalized phosphorylated AKT (relative to actin) levels relative to 0.1 nM compound treatment” value in assay [1] (0.1 nM) was 1.0; in assay [1] (1 nM), 1.3; in assay [1] (10 nM), 1.3; in assay [1] (100 nM), 0.8. Besides, the “% Inh @ 30 nM (N1)” value at IR (N1) is given as −2%. The “% Inh @ 30 nM (N2)” value at IR (N2) worked out at 4%. Also, the “% Inh @ 30 nM Avg” value on IR (average) is given as 1%.
With `CNC(=O)C1CCCN1c1nc2c(c(Nc3cc(C(C)C)[nH]n3)n1)CCC2` (single isomer, unassigned) [Compound 19a, 1-(4-(5-isopropyl-1H-pyrazol-3-ylamino)-6,7-dihydro-5H-cyclopenta[d]pyrimidin-2-yl)-N-methylpyrrolidine-2-carboxamide], the entries for the “% Inh @ 30 nM Avg” value on IGF-1R and at IR (average) were −3% and −9%, respectively.
For `O=C(Nc1ccc(F)nc1)[C@H]1[C@@H](O)CCN1c1nc2c(c(Nc3cc(C4CC4)[nH]n3)n1)CCC2` (single isomer, unassigned) [Compound 11a], the “Levels … (pAKT/actin)” value in assay [1] (0.1 nM compound) is 1.83; in assay [1] (1 nM compound), 1.55; in assay [1] (10 nM compound) it was 1.43; in assay [1] (100 nM compound), 1.58. Further, the “p-AKT relative to levels” value stood at 1.0 in assay [1] (0.1 nM), 0.8 in assay [1] (1 nM), 0.8 in assay [1] (10 nM) and 0.9 in assay [1] (100 nM). Besides, the “Normalized phosphorylated AKT (relative to actin) levels relative to 0.1 nM compound treatment” value in assay [1] (0.1 nM) worked out at 1.0; in assay [1] (1 nM), 0.8; in assay [1] (10 nM), 0.8; in assay [1] (100 nM), 0.9. In addition, on IR (N1), the “% Inh @ 30 nM (N1)” value is given as −17%. Besides, at IR (N2), the “% Inh @ 30 nM (N2)” value is recorded as −9%. The “% Inh @ 30 nM Avg” value on IR (average) is given as −13%.
For the compound `CC(C)c1cc(Nc2nc(N3CCCC3C(=O)N(C)c3ccc(F)nc3)nc3c2CCC3)n[nH]1` (stereo not shown) [Compound 55a, N-(6-fluoropyridin-3-yl)-1-(4-((5-isopropyl-1H-pyrazol-3-yl)amino)-6,7-dihydro-5H-cyclopenta[d]pyrimidin-2-yl)-N-methylpyrrolidine-2-carboxamide], the results for the inhibition at 0.03 µM at IGF-1R and at IR (setting [2]) were 13% and 8%, respectively.
In the case of `CC(C)c1cc(Nc2nc(N3CC(O)CC3C(=O)Nc3ccc(F)nc3)nc3c2CCC3)n[nH]1` (racemic) [Compound 70, N-(6-fluoropyridin-3-yl)-4-hydroxy-1-(4-(5-isopropyl-1H-pyrazol-3-ylamino)-6,7-dihydro-5H-cyclopenta[d]pyrimidin-2-yl)pyrrolidine-2-carboxamide], on IGF-1R, the IC50 turned out to be 22 nM and the inhibition at 0.03 µM is 66%. Also, the inhibition at 0.03 µM at IR (setting [2]) turned out to be 60%.
As to `CC(C)c1cc(Nc2nc(N3CCCC3C(N)=O)nc3c2CCC3)n[nH]1` (single isomer, unassigned) [Compound 18b, 1-(4-(5-isopropyl-1H-pyrazol-3-ylamino)-6,7-dihydro-5H-cyclopenta[d]pyrimidin-2-yl)pyrrolidine-2-carboxamide], the entries for the “% Inh @ 30 nM Avg” value on IGF-1R and on IR (average) were 39% and 32%, respectively.
On to `CC(C)c1cc(Nc2nc(N3CCCC3C(N)=O)nc3c2CCC3)n[nH]1` (single isomer, unassigned) [Compound 18a, 1-(4-(5-isopropyl-1H-pyrazol-3-ylamino)-6,7-dihydro-5H-cyclopenta[d]pyrimidin-2-yl)pyrrolidine-2-carboxamide], for which the results for the “% Inh @ 30 nM Avg” value at IGF-1R and on IR (average) were 14% and 3%, respectively.
For the compound `CC(C)c1cc(Nc2nc(N3CCC[C@@H]3C(=O)Nc3ccc(F)nc3)nc3c2CCC3)on1` (single isomer, unassigned) [Compound 12a], the “Levels … (pAKT/actin)” value in assay [1] (0.1 nM compound) is given as 4.17; in assay [1] (1 nM compound), 3.33; in assay [1] (10 nM compound), 2.91; in assay [1] (100 nM compound), 4.16. Further, the “p-AKT relative to levels” value in assay [1] (0.1 nM) amounted to 1.0; in assay [1] (1 nM), 0.8; in assay [1] (10 nM), 0.7; in assay [1] (100 nM), 1.0. The “Normalized phosphorylated AKT (relative to actin) levels relative to 0.1 nM compound treatment” value was 1.0 in assay [1] (0.1 nM), 0.8 in assay [1] (1 nM), 0.7 in assay [1] (10 nM) and 1.0 in assay [1] (100 nM). Moreover, the inhibition at 0.03 µM turned out to be 10% at IR (N1, read-out: % Inh @ 30 nM (N1)); 8% at IR (N2, read-out: % Inh @ 30 nM (N2)); 9% on IR (setting [2]).
Turning to `O=C(Nc1ccc(F)nc1)C1CC(O)CN1c1nc2c(c(Nc3cc(C4CC4)[nH]n3)n1)CCC2` (single isomer, unassigned) [Compound 10d, 1-(4-(5-cyclopropyl-1H-pyrazol-3-ylamino)-6,7-dihydro-5H-cyclopenta[d]pyrimidin-2-yl)-N-(6-fluoropyridin-3-yl)-4-hydroxypyrrolidine-2-carboxamide], the inhibition at 0.03 µM on IGF-1R was determined as 84%; at IR (setting [2]), 85%.
For the compound `CNC(=O)C1CCCN1c1nc2c(c(Nc3cc(C(C)C)[nH]n3)n1)CCC2` (single isomer, unassigned) [Compound 19b, 1-(4-(5-isopropyl-1H-pyrazol-3-ylamino)-6,7-dihydro-5H-cyclopenta[d]pyrimidin-2-yl)-N-methylpyrrolidine-2-carboxamide], the “% Inh @ 30 nM Avg” value is reported as 21% on IGF-1R and 9% on IR (average).
